According to the CheMixHub viscosity set:
“And” between values parts separate entries of the source, which are not always exact repeats. Equal values may be shown once.

Assay: xn = mol fraction of the nth substance listed

COc1ccccc1N + CCCC(C)=O
viscosity [mPa·s], 100 kPa
Conditions | x1 = 0.0932 | x1 = 0.1824 | x1 = 0.2643 | x1 = 0.3512 | x1 = 0.4494 | x1 = 0.5391 | x1 = 0.654 | x1 = 0.7787 | x1 = 0.8784
303.15 K | 0.887 | 1.312 | 1.695 | 2.099 | 2.548 | 2.952 | 3.46 | 3.999 | 4.421
308.15 K | 0.858 | 1.257 | 1.616 | 1.99 | 2.406 | 2.776 | 3.245 | 3.741 | 4.128
313.15 K | 0.829 | 1.202 | 1.537 | 1.879 | 2.262 | 2.598 | 3.028 | 3.481 | 3.832

O=C([O-])[O-].[Na+].[Na+] + [2H]O[2H]
viscosity [mPa·s], 101 kPa
Conditions | x1 = 0.009 | x1 = 0.018 | x1 = 0.031 | x1 = 0.041
298.15 K | 1.4 | 1.847 | 2.881 | 4.233
308.15 K | 1.094 | 1.443 | 2.174 | 3.115
318.15 K | 0.895 | 1.167 | 1.725 | 2.435

COc1ccccc1N + ClC(Cl)C(Cl)Cl
viscosity [mPa·s], 100 kPa
Conditions | x1 = 0.0911 | x1 = 0.1962 | x1 = 0.2806 | x1 = 0.3816 | x1 = 0.4976 | x1 = 0.6023 | x1 = 0.7116 | x1 = 0.8104 | x1 = 0.9212
303.15 K | 1.786 | 2.165 | 2.464 | 2.82 | 3.224 | 3.584 | 3.957 | 4.291 | 4.66
308.15 K | 1.673 | 2.029 | 2.309 | 2.639 | 3.013 | 3.347 | 3.692 | 4.001 | 4.337
313.15 K | 1.562 | 1.895 | 2.154 | 2.458 | 2.802 | 3.111 | 3.427 | 3.709 | 4.012

O=C(O)c1ccccc1 + c1ccccc1
viscosity
Conditions | 303.15 K | 308.15 K | 313.15 K | 318.15 K
101 kPa, x1 = 0.0581 | 0.6414 mPa·s | 0.5991 mPa·s | 0.5625 mPa·s | 0.5267 mPa·s
101 kPa, x1 = 0.105 | – | 0.6626 mPa·s | 0.622 mPa·s | 0.5832 mPa·s
101.33 kPa, x1 = 0.0581 | 0.6414 mPa·s | 0.5991 mPa·s | 0.5625 mPa·s | 0.5267 mPa·s
101.33 kPa, x1 = 0.05813 | – | 0.5991 mPa·s | – | 0.5267 mPa·s
101.33 kPa, x1 = 0.06979 | – | 0.616 mPa·s | – | 0.5401 mPa·s
101.33 kPa, x1 = 0.08477 | – | 0.6421 mPa·s | – | 0.56 mPa·s
101.33 kPa, x1 = 0.105 | – | 0.6626 mPa·s and 0.6626 mPa·s | 0.622 mPa·s | 0.5832 mPa·s and 0.5832 mPa·s
101.33 kPa, x1 = 0.1232 | – | – | – | 0.61 mPa·s

O.O.O=C(O)c1cc(S(=O)(=O)O)ccc1O + O
viscosity [mPa·s], 101 kPa
Conditions | x1 = 0.0004118 | x1 = 0.0005979 | x1 = 0.0007679 | x1 = 0.001076
298.15 K | 0.8998 | 0.9032 | 0.907 | 0.9134
308.15 K | 0.7268 | 0.7304 | 0.7332 | 0.7386
318.15 K | 0.597 | 0.6063 | 0.6087 | 0.6128

COC(C)=O + CCOC(C)=O
viscosity, 101 kPa
Conditions | 298.15 K | 313.15 K
x1 = 0.0544 | 0.432 mPa·s | 0.372 mPa·s
x1 = 0.0916 | 0.429 mPa·s | 0.37 mPa·s
x1 = 0.2242 | 0.418 mPa·s | 0.361 mPa·s
x1 = 0.3041 | 0.412 mPa·s | 0.357 mPa·s
x1 = 0.3995 | 0.405 mPa·s | 0.351 mPa·s
x1 = 0.5024 | 0.399 mPa·s | 0.346 mPa·s
x1 = 0.5482 | 0.396 mPa·s | 0.344 mPa·s
x1 = 0.6054 | 0.392 mPa·s | 0.341 mPa·s
x1 = 0.7024 | 0.387 mPa·s | 0.337 mPa·s
x1 = 0.8025 | 0.381 mPa·s | 0.333 mPa·s
x1 = 0.9028 | 0.377 mPa·s | 0.33 mPa·s
x1 = 0.9548 | 0.376 mPa·s | 0.33 mPa·s
x2 = 0.07815 | 0.3638 mPa·s | –
x2 = 0.189 | 0.3713 mPa·s | –
x2 = 0.3264 | 0.3801 mPa·s | –
x2 = 0.4453 | 0.3876 mPa·s | –
x2 = 0.5532 | 0.3943 mPa·s | –
x2 = 0.7914 | 0.4098 mPa·s and 0.4098 mPa·s | –
x2 = 0.8752 | 0.4158 mPa·s | –

C1CCCCC1 + CCCCO
Conditions | viscosity [mPa·s]
298.15 K, 101 kPa, x1 = 0.1014 | 2.225
298.15 K, 101 kPa, x1 = 0.1996 | 1.945
298.15 K, 101 kPa, x1 = 0.2962 | 1.699
298.15 K, 101 kPa, x1 = 0.4016 | 1.468
298.15 K, 101 kPa, x1 = 0.5032 | 1.274
298.15 K, 101 kPa, x1 = 0.597 | 1.123
298.15 K, 101 kPa, x1 = 0.6908 | 1.02
298.15 K, 101 kPa, x1 = 0.7923 | 0.9371
298.15 K, 101 kPa, x1 = 0.8856 | 0.8954
298.15 K, 101 kPa, x2 = 0.0216 | 0.876
298.15 K, 101 kPa, x2 = 0.1208 | 0.903
298.15 K, 101 kPa, x2 = 0.155 | 0.921
298.15 K, 101 kPa, x2 = 0.1796 | 0.931
298.15 K, 101 kPa, x2 = 0.3673 | 1.09
298.15 K, 101 kPa, x2 = 0.532 | 1.357
298.15 K, 101 kPa, x2 = 0.7128 | 1.752
298.15 K, 101 kPa, x2 = 0.8385 | 2.07
303.15 K, 101 kPa, x2 = 0.6491 | 1.196
303.15 K, 101.33 kPa, x2 = 0.2111 | 0.9317
303.15 K, 101.33 kPa, x2 = 0.298 | 0.9971
303.15 K, 101.33 kPa, x2 = 0.4038 | 1.095
303.15 K, 101.33 kPa, x2 = 0.489 | 1.187
303.15 K, 101.33 kPa, x2 = 0.8096 | 1.719
303.15 K, 101.33 kPa, x2 = 0.8981 | 1.941
308.15 K, 101 kPa, x2 = 0.0216 | 0.745
308.15 K, 101 kPa, x2 = 0.0714 | 0.754
308.15 K, 101 kPa, x2 = 0.1208 | 0.765
308.15 K, 101 kPa, x2 = 0.155 | 0.779
308.15 K, 101 kPa, x2 = 0.1796 | 0.787
308.15 K, 101 kPa, x2 = 0.3673 | 0.898
308.15 K, 101 kPa, x2 = 0.532 | 1.089
308.15 K, 101 kPa, x2 = 0.6491 | 1.083
308.15 K, 101 kPa, x2 = 0.7128 | 1.387
308.15 K, 101 kPa, x2 = 0.8385 | 1.627
313.15 K, 101 kPa, x1 = 0.1014 | 1.547
313.15 K, 101 kPa, x1 = 0.1996 | 1.363
313.15 K, 101 kPa, x1 = 0.2962 | 1.203
313.15 K, 101 kPa, x1 = 0.4016 | 1.054
313.15 K, 101 kPa, x1 = 0.5032 | 0.934
313.15 K, 101 kPa, x1 = 0.597 | 0.8408
313.15 K, 101 kPa, x1 = 0.6908 | 0.7773
313.15 K, 101 kPa, x1 = 0.7923 | 0.7265
313.15 K, 101 kPa, x1 = 0.8856 | 0.6993
313.15 K, 101 kPa, x2 = 0.6491 | 0.9869
318.15 K, 101 kPa, x2 = 0.0216 | 0.643
318.15 K, 101 kPa, x2 = 0.0714 | 0.645
318.15 K, 101 kPa, x2 = 0.1208 | 0.652
318.15 K, 101 kPa, x2 = 0.155 | 0.664
318.15 K, 101 kPa, x2 = 0.1796 | 0.672
318.15 K, 101 kPa, x2 = 0.3673 | 0.754
318.15 K, 101 kPa, x2 = 0.532 | 0.895
318.15 K, 101 kPa, x2 = 0.7128 | 1.114
318.15 K, 101 kPa, x2 = 0.8385 | 1.298

COC(C)=O + OCCO
viscosity [mPa·s], 101.33 kPa
Conditions | x2 = 0.1014 | x2 = 0.1953 | x2 = 0.2981 | x2 = 0.3974 | x2 = 0.5029 | x2 = 0.5992 | x2 = 0.6997 | x2 = 0.799 | x2 = 0.9639
298.15 K | 0.543 | 0.645 | 0.829 | – | 1.85 | 2.329 | 3.499 | 5.578 | 9.086
303.15 K | 0.507 | 0.599 | 0.756 | 1.008 | 1.633 | 2.026 | 3.025 | 4.658 | 7.673
308.15 K | 0.473 | 0.561 | 0.701 | 0.921 | 1.439 | 1.781 | 2.643 | 3.989 | 6.317
